# Assay results from patent US20230218624A1 (Urovant Sciences GmbH, priority 2017, published 2023).
# Where “and” joins values, the source holds several entries; their conditions need not be identical. Equal values may be shown once. Marks after values point to notes of the source that are not given here.
# Key:
# healthy subjects = assay: Maximum MA4 heart rate in multiple-dose Phase 1 study; type: in vivo, human; conditions: Day 14
# Protocol: More intensive assessments of heart rate and blood pressure were performed in healthy volunteers in several Phase 1 studies. […] Doses ranged from 25 to 400 mg once daily for 7 to 28 days depending on the cohort. Least squares mean and 90% confidence intervals of maximum change from baseline in moving average of heart rate over 4 hours postdose (MA4 HR) are presented in Table 17.
# [1] = PK in patients with moderate hepatic impairment; conditions: single dose 100 mg
# CYP3A4 = CYP3A4 (Homo sapiens, UniProt P08684); assay: In vitro CYP metabolism; type: in vitro ADME
# CYP3A4, sequence (P08684 whole entry): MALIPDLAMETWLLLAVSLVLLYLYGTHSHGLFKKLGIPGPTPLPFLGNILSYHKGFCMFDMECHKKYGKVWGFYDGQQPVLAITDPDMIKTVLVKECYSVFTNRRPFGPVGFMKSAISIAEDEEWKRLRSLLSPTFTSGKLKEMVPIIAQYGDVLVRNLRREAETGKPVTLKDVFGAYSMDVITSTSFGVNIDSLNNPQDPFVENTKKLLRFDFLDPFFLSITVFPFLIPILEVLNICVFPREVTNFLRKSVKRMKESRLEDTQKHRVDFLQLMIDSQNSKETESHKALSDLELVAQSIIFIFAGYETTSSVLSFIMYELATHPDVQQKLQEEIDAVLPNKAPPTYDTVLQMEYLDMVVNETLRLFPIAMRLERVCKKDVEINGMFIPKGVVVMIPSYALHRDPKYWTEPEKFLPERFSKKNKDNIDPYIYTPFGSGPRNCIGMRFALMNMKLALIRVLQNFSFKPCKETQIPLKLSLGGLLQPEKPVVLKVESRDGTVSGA
# [2] = Single rising oral dose Phase 1 pharmacokinetics; type: in vivo, human
# Protocol: The steady state AUC geometric mean accumulation ratios were ˜2 in young male subjects and ˜2.8 in elderly subjects (male and female).
# All subjects were healthy adults. […] Systemic exposures were greater than dose proportional up to 600 mg.
# [3] = system: males and females with OAB; assay: Phase 3 12-week placebo controlled study in OAB; type: in vivo, human; conditions: Week 12
# Protocol: (§1) After eight weeks, the dose could be increased to 100 mg once daily as clinically indicated.
# [4] = PK in patients with renal impairment; conditions: for AUC0-inf, geometric least squares mean / Apparent terminal t1/2, geometric mean (% geometric CV) / CL/F, geometric least squares mean / CLR, geometric mean (% geometric CV) / Cmax, geometric least squares mean / Fe[urine]48 hr, geometric mean (% geometric CV) / Tmax (median): single dose 100 mg
# Description: The relationship between clearance and renal function was modeled using linear regression.
# [5] = Relative bioequivalence of aqueous and non-aqueous tablet; type: in vivo, human; conditions: 50 mg
# Description: An open-label, single-dose, randomized, two-period, two-treatment, two-sequence, crossover Phase 1 study evaluated the relative bioequivalence of two types of tablets with slightly different composition: aqueous tablet (test) and non-aqueous tablet (reference).
# [6] = Drug interaction: effect of co-administered medication on vibegron PK; type: in vivo, human
# Description: However, these interactions are not expected to be clinically significant.
# patients with OAB = assay: Phase 3 open-label 52-week study in OAB; type: in vivo, human; conditions: 50 mg or 100 mg once daily, 52-week treatment period
# Protocol: as §1
# [7] = Drug interaction study of vibegron 75 mg and rifampin; type: in vivo, human
# β1-AR = biological target: T1, β1-AR (Homo sapiens, UniProt P08588); assay: Competition binding assay, membranes with recombinant β1-AR
# T1 construct: expressed in transfected cells; membranes prepared from them
# T1 sequence (P08588 whole entry): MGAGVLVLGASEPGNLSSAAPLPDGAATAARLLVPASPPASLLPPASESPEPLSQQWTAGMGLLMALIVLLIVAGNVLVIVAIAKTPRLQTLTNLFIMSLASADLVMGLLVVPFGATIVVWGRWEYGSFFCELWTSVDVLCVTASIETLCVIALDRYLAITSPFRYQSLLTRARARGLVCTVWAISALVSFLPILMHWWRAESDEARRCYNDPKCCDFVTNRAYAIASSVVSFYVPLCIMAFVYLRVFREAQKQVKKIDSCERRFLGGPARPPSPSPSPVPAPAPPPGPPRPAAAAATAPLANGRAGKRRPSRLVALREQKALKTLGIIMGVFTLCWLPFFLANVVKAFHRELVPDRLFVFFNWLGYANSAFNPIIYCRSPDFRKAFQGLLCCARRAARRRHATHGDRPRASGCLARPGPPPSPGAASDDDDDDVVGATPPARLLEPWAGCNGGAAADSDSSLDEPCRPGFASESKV
# [8] = healthy matched control subjects
# [9] = vibegron 100 mg single dose with multiple doses of 240 mg or 180 mg diltiazem
# [10] = Vibegron + Rifampin 600 mg QD, single dose 75 mg, healthy adults
# [11] = Vibegron alone, single dose 75 mg, healthy adults
compound,measurement,setting,value
"O=C(Nc1ccc(C[C@@H]2CC[C@H]([C@H](O)c3ccccc3)N2)cc1)[C@@H]1CCc2nccc(=O)n21 [Vibegron, (6S)—N-[4-[[(2S,5R)-5-[(R)-hydroxy(phenyl)methyl]pyrrolidin-2-yl]methyl]phenyl]-4-oxo-7,8-dihydro-6H-pyrrolo[1,2-a]pyrimidine-6-carboxamide]",Maximum MA4 HR difference from placebo (90% CI),healthy subjects; 25 mg once daily,"−1.60 (−7.09, 3.88) bpm"
same,"Maximum MA4 HR, LS mean (90% CI)",healthy subjects; 25 mg once daily,"1.47 (−3.24, 6.17) bpm"
same,Maximum MA4 HR difference from placebo (90% CI),healthy subjects; 50 mg once daily,"−1.57 (−6.70, 3.56) bpm"
same,"Maximum MA4 HR, LS mean (90% CI)",healthy subjects; 50 mg once daily,"1.50 (−2.79, 5.79) bpm"
same,"Maximum MA4 HR, LS mean (90% CI)",healthy subjects; 100 mg once daily,"3.28 (−1.02, 7.57) bpm"
same,Maximum MA4 HR difference from placebo (90% CI),healthy subjects; 150 mg once daily,"0.10 (−5.04, 5.23) bpm"
same,"Maximum MA4 HR, LS mean (90% CI)",healthy subjects; 150 mg once daily,"3.17 (−1.13, 7.46) bpm"
same,Maximum MA4 HR difference from placebo (90% CI),healthy subjects; 200 mg once daily,"2.60 (−2.89, 8.08) bpm"
same,"Maximum MA4 HR, LS mean (90% CI)",healthy subjects; 200 mg once daily,"5.67 (0.96, 10.37) bpm"
same,Maximum MA4 HR difference from placebo (90% CI),healthy subjects; 300 mg once daily,"5.98 (0.85, 11.12) bpm"
same,"Maximum MA4 HR, LS mean (90% CI)",healthy subjects; 300 mg once daily,"9.06 (4.76, 13.35) bpm"
same,Maximum MA4 HR difference from placebo (90% CI),healthy subjects; 400 mg once daily,"7.26 (2.13, 12.39) bpm"
same,"Maximum MA4 HR, LS mean (90% CI)",healthy subjects; 400 mg once daily,"10.33 (6.04, 14.63) bpm"
same,"AUC0-inf, geometric least squares mean",[1]; [8],1440 ng·h/mL
same,"CL/F, geometric mean (% geometric CV)",[1]; [8],68.3 (36.0%) L/hr
same,"Cmax, geometric least squares mean",[1]; [8],125 ng/mL
same,"AUC0-inf, geometric least squares mean",[1]; moderate hepatic impairment,1820 ng·h/mL
same,"Apparent terminal t1/2, geometric mean (% geometric CV)",[1]; moderate hepatic impairment,94.5 (8.88%) hr
same,"CL/F, geometric mean (% geometric CV)",[1]; moderate hepatic impairment,56.0 (31.2%) L/hr
same,"Cmax, geometric least squares mean",[1]; moderate hepatic impairment,168 ng/mL
same,CYP responsible for in vitro metabolism,CYP3A4,CYP3A4 is the predominant CYP responsible for in vitro metabolism
same,"exposure increase, young Japanese vs non-Japanese young males",[2]; single dose,< 2 fold
same,t1/2 (harmonic mean ± pseudo SD),"[2]; single dose 50 mg, Japanese healthy young males",64.4 ± 8.7 h
same,t1/2 (harmonic mean ± pseudo SD),"[2]; single dose 50 mg, elderly male and female",92.1 ± 15.9 h
same,t1/2 (harmonic mean ± pseudo SD),"[2]; single dose 200 mg, healthy young males",75.3 ± 9.1 h
same,t1/2 (harmonic mean ± pseudo SD),"[2]; single dose 450 mg, healthy young males",60.0 ± 9.4 h
same,"Micturitions, LS mean placebo adjusted change from baseline (95% CI)",[3]; 50 mg,"−0.86 (−1.12, −0.60)"
same,"Total incontinence episodes, LS mean placebo adjusted change from baseline (95% CI)",[3]; 50 mg,"−0.30 (−0.49, −0.12)"
same,"Urge urinary incontinence episodes, LS mean placebo adjusted change from baseline (95% CI)",[3]; 50 mg,"−0.27 (−0.44, −0.10)"
same,"Urgency episodes, LS mean placebo adjusted change from baseline (95% CI)",[3]; 50 mg,"−0.51 (−0.76, −0.25)"
same,"Volume voided, LS mean placebo adjusted change from baseline (95% CI)",[3]; 50 mg,"25.76 (20.02, 31.46) mL"
same,"Micturitions, LS mean placebo adjusted change from baseline (95% CI)",[3]; 100 mg,"−0.81 (−1.07, −0.55)"
same,"Total incontinence episodes, LS mean placebo adjusted change from baseline (95% CI)",[3]; 100 mg,"−0.43 (−0.61, −0.24)"
same,"Urge urinary incontinence episodes, LS mean placebo adjusted change from baseline (95% CI)",[3]; 100 mg,"−0.39 (−0.55, −0.22)"
same,"Urgency episodes, LS mean placebo adjusted change from baseline (95% CI)",[3]; 100 mg,"−0.67 (−0.93, −0.42)"
same,"Volume voided, LS mean placebo adjusted change from baseline (95% CI)",[3]; 100 mg,"22.16 (16.44, 27.89) mL"
same,AUC0-inf higher than healthy matched controls,[4]; mild renal impairment,49%
same,CLR reduced compared to healthy matched controls,[4]; mild renal impairment,39%
same,Cmax higher than healthy matched controls,[4]; mild renal impairment,96%
same,AUC0-inf higher than healthy matched controls,[4]; moderate renal impairment,106%
same,CLR reduced compared to healthy matched controls,[4]; moderate renal impairment,65%
same,Cmax higher than healthy matched controls,[4]; moderate renal impairment,68%
same,AUC0-inf higher than healthy matched controls,[4]; severe renal impairment,83%
same,CLR reduced compared to healthy matched controls,[4]; severe renal impairment,82%
same,Cmax higher than healthy matched controls,[4]; severe renal impairment,42%
same,"AUC0-inf, geometric least squares mean",[4]; [8],1540 ng·h/mL
same,"Apparent terminal t1/2, geometric mean (% geometric CV)",[4]; [8],98.8 (13.9) hr
same,"CL/F, geometric least squares mean",[4]; [8],64.9 L/h
same,"CLR, geometric mean (% geometric CV)",[4]; [8],10.4 (20.2) L/hr
same,"Cmax, geometric least squares mean",[4]; [8],107 ng/mL
same,"Fe[urine]48 hr, geometric mean (% geometric CV)",[4]; [8],7.9% and 7.9 (43.0) %
same,"Apparent terminal t1/2, geometric mean (% geometric CV)",[4]; mild renal impairment,96.2 (11.5) hr
same,"CL/F, geometric least squares mean",[4]; mild renal impairment,43.6 L/h
same,"CLR, geometric mean (% geometric CV)",[4]; mild renal impairment,6.3 (31.1)^c L/hr
same,"Cmax, geometric least squares mean",[4]; mild renal impairment,210 ng/mL
same,"Fe[urine]48 hr, geometric mean (% geometric CV)",[4]; mild renal impairment,8.5% and 8.5 (43.9)^c %
same,"AUC0-inf, geometric least squares mean",[4]; moderate renal impairment,3170 ng·h/mL
same,"Apparent terminal t1/2, geometric mean (% geometric CV)",[4]; moderate renal impairment,108 (21.0) hr
same,"CL/F, geometric least squares mean",[4]; moderate renal impairment,31.5 L/h
same,"CLR, geometric mean (% geometric CV)",[4]; moderate renal impairment,3.6 (34.5) L/hr
same,"Fe[urine]48 hr, geometric mean (% geometric CV)",[4]; moderate renal impairment,5.5% and 5.5 (53.2) %
same,Tmax (median),[4]; moderate renal impairment,1.3 h
same,"AUC0-inf, geometric least squares mean",[4]; severe renal impairment,2820 ng·h/mL
same,"Apparent terminal t1/2, geometric mean (% geometric CV)",[4]; severe renal impairment,131 (10.0) hr
same,"CL/F, geometric least squares mean",[4]; severe renal impairment,35.5 L/h
same,"CLR, geometric mean (% geometric CV)",[4]; severe renal impairment,1.9 (30.9) L/hr
same,"Cmax, geometric least squares mean",[4]; severe renal impairment,152 ng/mL
same,"Fe[urine]48 hr, geometric mean (% geometric CV)",[4]; severe renal impairment,2.1% and 2.1 (57.6) %
same,Tmax (median),[4]; severe renal impairment,0.5 h
same,CL/F increase per one mL/min/1.73 m^2 increase in eGFR,[4]; slope of linear regression,~0.8%
same,AUC0-inf GMR test to reference tablet,[5],100.2%
same,Cmax GMR test to reference tablet,[5],107.7%
same,effect of tolterodine ER 4 mg on the pharmacokinetics of vibegron,[6]; in vivo,no effect
same,"Cmax of vibegron, geometric mean",[6]; vibegron 100 mg single dose + diltiazem ER 240 mg QD,167 ng/mL
same,GM AUC0-inf increase,[6]; [9],63%
same,GM Cmax increase,[6]; [9],68%
same,GM t1/2,[6]; vibegron with diltiazem,75.4 h
same,long-term efficacy,patients with OAB,"reduced episodes of micturitions, UUI episodes, total incontinence episodes, and urgency episodes"
same,"CL/F, geometric mean (% CV)",[7]; [10],57.3 (30.1) L/hr
same,"V/F, geometric mean (% CV)",[7]; [10],6140 (47.0) L
same,"t1/2, geometric mean (% CV)",[7]; [10],74.2 (25.2) h
same,"CL/F, geometric mean (% CV)",[7]; [11],57.2 (39.7) L/hr
same,"V/F, geometric mean (% CV)",[7]; [11],6930 (48.6) L
same,tolerability,"[7]; vibegron 75 mg and rifampin, healthy male and female subjects",well tolerated
same,subjects with an AE related to study drug,"[7]; vibegron 75 mg single doses and rifampin 600 mg QD, 3 of 20 subjects",15%
same,binding to β1-AR,β1-AR,does not bind
